In patent publication US20140287923A1, “METHOD FOR ENHANCING CROP YIELDS BY APPLICATION OF TREHALOSE” (Stoller Enterprises, Inc., priority 2012, published 2014):

Experiments:
Assay type in all cases: in vivo
[1] = tested on: Field Corn, cultivar Asgrow 7371; test: Foliar trehalose on field corn yield, cultivar Asgrow 7371; conditions: trehalose 100 grams per acre foliar, 4 and 5 weeks after V16 stage
From the text: Field Corn, cultivar Asgrow 7371, was twice treated foliarly before harvest with an aqueous solution of trehalose at the rate of 100 grams of trehalose per acre, at 4 weeks after the V16 stage of growth, and once again foliarly at the same rate at 5 weeks after the V16 stage of growth.

[2] = tested on: Field corn, Cultivar Dekalb C6805; test: Foliar trehalose on field corn yield, cultivar Dekalb C6805; conditions: for Yield of field corn (bushels per acre): control 155; for Weight of 1,000 kernels (grams): control 261
Method: Field corn, Cultivar Dekalb C6805, was treated foliarly with an aqueous solution of trehalose at the rate of 100 grams per acre, either at the […] stage of growth or 3 weeks before the […] stage of growth, in southern Texas. Field corn yields were increased with this cultivar from 155 bushels per acre to an unprecedented 337 bushels per acre for this locale, characterized by hot, windy climate and poor soils and high levels of pests including disease and insects. Seed weights of the corn kernels were increased.

Potato, cultivar Eva = test: Yield of Eva potato treated foliarly with trehalose 4 weeks before harvest; conditions: for pounds per graded size #4 (>10 ounces): control 0.0; for pounds per graded size #1 (0 to 4 ounces): control 0.8; for pounds per graded size #2 (>4 ounces) / pounds per graded size #3 (>6 ounces): control 6.8; for pounds Total: control 14.4
Potatoes, cultivar Eva = test: Reducing sugar content of potato tubers after foliar trehalose, cultivar Eva; conditions: for Reducing Sugar Content of Tubers (absorbance at 570 nm): 100 grams/acre foliar, n = 16
Method: Potatoes, cultivar Eva in Pennsylvania, were treated either 4 or 2 weeks before harvest with a foliar application of trehalose at the rate of 100 grams per acre. The potatoes were harvested and shipped to College Station, Texas for analysis of reducing sugars. […] (Table 4).

[3] = tested on: Potatoes, cultivar Snowden; test: Reducing sugar content of potato tubers after foliar trehalose, cultivar Snowden; conditions: 4 or 2 weeks before harvest, inversely proportional to the dose of trehalose
Method: Potatoes, cultivar Snowden in Wisconsin, were treated either 4 or 2 weeks before harvest with a foliar application of trehalose at the rate of 100 grams per acre. The potatoes were harvested and shipped to College Station, Tex. for analysis of reducing sugars.

Sugar Beets = test: Foliar trehalose on sugar beet yield and quality
From the text: Sugar Beets were foliarly treated with Trehalose at the rate of 300 grams per acre in Yuma Colo.

Sugar Cane = test: Trehalose on sugar per acre from sugar cane; conditions: 4 weeks before harvest
Method: Sugar Cane, grown in southern Texas was treated 4 weeks before harvest with an aqueous solution of Trehalose at the rate of 450 grams per acre, gave an extra 897 pounds of sugar from sugar cane production.

winter wheat = test: Foliar trehalose on yield of winter wheat; conditions: 100 g/a Foliar, 4 weeks before harvest; control 0%; highly significant
Method: Wheat, grown in Ontario Canada, was treated foliarly with an aqueous solution of trehalose at the rate of 100 grams per acre, 4 weeks before harvest.

[4] = 100 grams per acre foliar at the V16 stage of growth
[5] = 100 grams per acre foliar, 3 wk prior to V16 growth stage

Which results are given for `OC[C@H]1O[C@H](O[C@H]2O[C@H](CO)[C@@H](O)[C@H](O)[C@H]2O)[C@H](O)[C@@H](O)[C@@H]1O` [Trehalose, trehalose]?
Yield increase by treatment of trehalose [1]: up to 125%; Yield of field corn (bushels per acre) ([1]; Cultivar 7371, control 103 bu/acre): 231 bu/acre; Weight of 1,000 kernels (grams) ([1]; Cultivar 7371, control 288 grams): 368 grams; Seed weights of the corn kernels ([2]; 100 grams per acre foliar): increased; Yield of field corn (bushels per acre) [2, 4]: 311 bushels per acre; Weight of 1,000 kernels (grams) [2, 4]: 286 grams; Yield of field corn (bushels per acre) [2, 5]: 327 bushels per acre; Weight of 1,000 kernels (grams) [2, 5]: 294 grams; Field corn yield ([2]; 100 grams per acre foliar, V16 or 3 weeks before V16, increased from 155): 337 bushels per acre; Potato yield (Potato, cultivar Eva; 100 grams per acre foliar): increased yields; pounds per graded size #4 (>10 ounces) (Potato, cultivar Eva; Trehalose 25 g foliar): 0.0 pounds; pounds per graded size #1 (0 to 4 ounces) (Potato, cultivar Eva; Trehalose 25 g foliar): 1.1 pounds; pounds per graded size #2 (>4 ounces) (Potato, cultivar Eva; Trehalose 25 g foliar): 7.2 pounds; pounds per graded size #3 (>6 ounces) (Potato, cultivar Eva; Trehalose 25 g foliar): 8.6 pounds; pounds Total (Potato, cultivar Eva; Trehalose 25 g foliar): 16.9 pounds; pounds per graded size #4 (>10 ounces) (Potato, cultivar Eva; Trehalose 50 g foliar): 0.0 pounds; pounds per graded size #1 (0 to 4 ounces) (Potato, cultivar Eva; Trehalose 50 g foliar): 0.9 pounds; pounds per graded size #2 (>4 ounces) (Potato, cultivar Eva; Trehalose 50 g foliar): 7.0 pounds; pounds per graded size #3 (>6 ounces) (Potato, cultivar Eva; Trehalose 50 g foliar): 8.3 pounds; pounds Total (Potato, cultivar Eva; Trehalose 50 g foliar): 16.2 pounds; pounds per graded size #4 (>10 ounces) (Potato, cultivar Eva; Trehalose 100 g foliar): 0.4 pounds; pounds per graded size #1 (0 to 4 ounces) (Potato, cultivar Eva; Trehalose 100 g foliar): 0.8 pounds; pounds per graded size #2 (>4 ounces) (Potato, cultivar Eva; Trehalose 100 g foliar): 7.4 pounds; pounds per graded size #3 (>6 ounces) (Potato, cultivar Eva; Trehalose 100 g foliar): 8.4 pounds; pounds Total (Potato, cultivar Eva; Trehalose 100 g foliar): 17.0 pounds; Reducing sugars in the potato tubers (Potatoes, cultivar Eva; 100 grams per acre foliar, 4 weeks before harvest): decreased; Reducing Sugar Content of Tubers (absorbance at 570 nm) (Potatoes, cultivar Eva; 2 weeks before Harvest, control 0.200 ± 0.08): 0.211 ± 0.12 absorbance at 570 nm; Reducing Sugar Content of Tubers (absorbance at 570 nm) (Potatoes, cultivar Eva; 4 weeks before Harvest, control 0.217 ± 0.15): 0.125 ± 0.03 absorbance at 570 nm; Reducing sugar content of potato tubers [3]: decrease in reducing sugar content; Percent SLM (Sugar Beets; 300 g/a Foliar, 2 weeks before harvest, control 1.85): 1.22%; Percent Sugar (Sugar Beets; 300 g/a Foliar, 2 weeks before harvest, control 15.83%): 17.23%; Sugar Beet yield (tons per acre) (Sugar Beets; 300 g/a Foliar, 2 weeks before harvest, control 27.79): 28.4 tons per acre; Pounds of Sugar per acre (Sugar Beets; 300 g/a Foliar, 2 weeks before harvest, control 8797): 9770 Pounds of Sugar per acre; Extra sugar per acre transferred to the beets (Sugar Beets; 300 grams per acre foliar): nearly half an extra ton of sugar per acre; % SLM (Sugar Beets; 300 grams per acre, 2 weeks before harvest): decided reduction; increase in lb of sugar per acre from sugar cane (Sugar Cane; 450 g/a Foliar, control 0): 897 lb; extra sugar from sugar cane production (Sugar Cane; 450 grams per acre): 897 pounds; increase in yield of winter wheat (winter wheat): 9.5%, highly significant
